Columns and labels:
[1] = test system: inflammatory bowel disease (IBD) model mice; experiment: Dextran sulfate sodium (DSS)-induced inflammatory bowel disease (IBD) model mice; type: in vivo, BALB/c mice
Method: Dextran sodium sulfate (DSS) (molecular weight 36,000 to 50,000, manufactured by MP Biomedicals, Product No. 160110) was dissolved in purified water to prepare a 2.5% (w/v) DSS aqueous solution. In addition, the peptide 1r10 (TFA salt) consisting of the amino acid sequence of SEQ ID NO: 1 was chemically synthesized by the solid phase method and used as the test substance.
BALB/c mice (9 weeks old, male) were allowed to drink the 2.5% DSS aqueous solution freely for 7 days to induce colitis. After that, the drinking was changed from DSS to tap water, and the large intestine was collected 3 days later (10 days after the start of drinking the DSS aqueous solution).
The IBD model mice prepared as described above were divided into the peptide 1r10 administration group (n=8) and the control group (n=8). Peptide administration was carried out by injecting into the tail vein, the peptide 1r10 solution adjusted to a concentration of 0.5 mg/mL using physiological saline as a solvent at an amount of 10 mL/kg on Days 1, 4, 7, 8 and 9 after the start of drinking the DSS aqueous solution (peptide dose of 5 mg/kg). The control group was injected with physiological saline solution at a dose of 10 mL/kg into the tail vein on Days 1, 4, 7, 8 and 9 after the start of drinking the DSS aqueous solution.
For 10 days from the start of drinking the DSS aqueous solution, the mice were weighed and observed for the symptoms (stool condition and bleeding) every day except Saturdays, Sundays, and holidays, and the degree of symptoms was evaluated by calculating the DAI (disease activity index) score. The DAI score was calculated by scoring the weight loss rate, stool condition, and stool bleeding as shown in the table below, and summing the scores of these three items. The scoring criteria were partly based on the method of Li et al. (PLoS One. 2015 Dec. 7; 10 (12): e0144101).
In addition, the length of the large intestine (from the colon to the rectum) collected 10 days after the start of drinking DSS was measured using a digital caliper.

[2] = test system: cerebral infarction model rat; experiment: Cerebral infarction model rat (right MCA occlusion), cerebral infarction volume ratio; type: in vivo, Crl:CD (SD) rats; details: 2 mg/kg tail vein at 105 minutes and 24 hours after right MCA occlusion; 48 hours after occlusion; control 34.1±1.1%; p<0.01
Excerpt: Crl:CD (SD) rats (7 weeks old, male) were obtained from Charles River Laboratories, Japan, and after 6 days of acclimation, they were divided into the control group (n=8) and the peptide-administered group (n=8). On the following day of grouping, the rats were fixed in the supine position under 2% isoflurane inhalation anesthesia (anesthesia background: laughing gas:oxygen=7:3). To regulate body temperature during surgery, a thermometer probe connected to a digital thermometer was inserted into the rectum, and changes in the rectal temperature before and after surgery were monitored. […]
Forty-eight hours after the right MCA occlusion, the animals were decapitated under anesthesia with sodium pentobarbital (50 mg/kg, intraperitoneal administration), and the entire brain was excised to prepare brain sections with a thickness of 2 mm. […] The resulting photographs were subjected to image analysis to obtain actual measurements of the cerebral infarction area and cross-sectional area of the brain, and the cerebral infarct volume and the total brain volume from 4 mm anterior to bregma to 6 mm posterior to bregma were calculated using the calculation formula below. In addition, the cerebral infarction volume ratio was calculated from the cerebral infarction volume and the total volume of the brain (cerebral infarction volume ratio (%)=cerebral infarction volume/total brain volume x 1001. […]

[3] = test system: atopic dermatitis model mice; experiment: MC903-induced atopic dermatitis model mice; type: in vivo, C57BL/6 mice
Excerpt: MC903 (generic name: Calcipotriol) was used to induce atopic dermatitis (hereinafter, also referred to as “AD”) in mice. In addition, the peptide 1r10 (TFA salt) described in Reference Example 1 was used as the test substance.
C57BL/6 mice (C57BL/6 JJcl, 7-8 weeks old, male, microbial grade SPF) were obtained from Japan Claire Co., Ltd., acclimated in the animal breeding room for 5 days or more, and then subjected to the following experiments. An ethanol-adjusted MC903 solution was applied to the skin of the auricle of the mice at a dose of 2.25 nmol MC903/ear/once/day five times a week for 2 weeks (ten times in total) to induce atopic dermatitis (AD). This MC903-induced AD model is a model in which AD-like pathology can be reproduced in a short period of time (1-2 weeks) by artificially inducing the secretion of TSLP from epithelial cells, which is actually seen in AD patients, thereby eliciting a series of type 2 immune response cascades (Li M et al., Proc Natl Acad Sci USA. 2006; 103:11736-41.).
They were then divided into the control group and the peptide administration group (n=7 in each group), while the groups were equalized based on the auricle thickness in consideration of the difference in the severity of inflammation between individuals. For peptide administration, the solution of peptide 1r10 adjusted to 0.3 mg/mL with physiological saline was injected into the tail vein at a volume of 5 mL/kg ([…]) twice in total, once on the grouping day (Day 15) and once during the following 4 days (Day 16 to Day 19). For the control group a solution of bovine serum albumin (BSA) adjusted to 0.3 mg/mL with physiological saline was injected into the tail vein at a volume of 5 mL/kg (BSA dose of 1.5 mg/kg) twice in total, once on the grouping day (Day 15) and once during the following 4 days (Day 16 to Day 19).
During the peptide administration period (Day 15 to Day 19), ear swellings were measured daily to determine edema. Scaling, which is the main symptom of AD, was determined by photography (three times a week) using a digital camera (E-Ml II; Olympus) from a fixed base at a height of 13-14 cm from the auricle.
On the 4th day (Day 19) after the start of peptide administration, mice were placed under the influence of isoflurane anesthesia and euthanized with cervical spine dislocation. The skin at auricular inflammation site and its surroundings was quickly excised and collected while on ice to prevent protein denaturation of the sample. After removing excess hair and skin with tweezers, the collected auricular skin was immersed in 10% formalin and fixed at 4° C. overnight while shaking on ice using a shaker. After fixation, the skin was thoroughly washed with phosphate buffered saline (PBS) and trimmed, and then a paraffin block was made using an automatic embedding device (Excelsior ES; Thermo Scientific) with attention to the tissue polarity in the dorsoventral axis/left-right axis specific to the skin). Then, it was sliced (5 μm thick) with a rotary microtome (HM 325; Thermo Scientific), fixed on a slide glass, and subjected to various staining. As pathological analysis, skin thickness and infiltration of immune cells were evaluated by histochemical staining and fluorescent immunostaining, respectively.
To quantitatively evaluate the healing condition of the site of inflammation, hematoxylin-eosin (HE) staining of the paraffin thin sections (5 μm thick) of skin tissue generated as described above was performed to measure the dermal thickness. Specifically, three sections were prepared for each individual, and each section was photographed with a microscope (Keyence BZ-X710) at one site each of the center of inflammation, head side, and tail side (that is, a total of 9 sites were photographed per individual). […]

mesenchymal stem cells = experiment: Solid-phase culture of peripheral blood after administration of HMGB1 peptide 1-44 (earlier experiments of the inventors); type: in vivo
Excerpt: In addition, the colonies obtained as a result of culturing, on a solid phase, peripheral blood after administration of a peptide consisting of amino acid residues 1-44 of the human HMGB1 protein (hereinafter, HMGB1 peptide 1-44), which has an activity of mobilizing mesenchymal stem cells into peripheral blood, have been confirmed to have adherability to solid phase and self-renewal ability, and to be PDGFRα positive. They have also been confirmed to have a gene expression profile characteristic to mesenchymal stem cells, based on the results of clustering the transcriptome analysis data and performing gene ontology analysis.

[4] = 5 mg/kg tail vein, 8 to 10 days after the start of drinking DSS, versus saline control

| Substance | body weight 10 days after the start of drinking the DSS aqueous solution ([1]; 5 mg/kg tail vein on Days 1, 4, 7, 8 and 9, Day 10) | changes in mouse body weight during the test period ([1]; 5 mg/kg tail vein on Days 1, 4, 7, 8 and 9 after start of drinking DSS, versus saline control) | DAI (disease activity index) score [1, 4] | stool score (sum of stool condition score and bleeding score) [1, 4] | colon length (length of the large intestine) ([1]; 5 mg/kg tail vein, ten days after the start of drinking DSS, versus saline control) | cerebral infarction volume ratio (mean±standard error) [2] [%] | dermis thickness ([3]; 1.5 mg/kg tail vein twice, 4th day after start of administration (Day 19), HE staining, versus control) | scaling in the auricle ([3]; 1.5 mg/kg tail vein twice, 4 days after start of peptide administration, versus BSA control) | number of CD45-positive cells (infiltration of immune cells) in auricular skin sections ([3]; 1.5 mg/kg tail vein twice, Day 19, high power field 400×, versus control) | auricular thickness (edema) ([3]; 1.5 mg/kg tail vein twice, peptide administration period Day 15 to Day 19, versus BSA control) | changes in mouse body weight during the period of the study ([3]; Day 15 to Day 19, between peptide and control groups, p>0.05, repeated one-way ANOVA) | dermis thickness ([3]; dose of 0.5 mg/kg, versus control (data not shown)) | number of colonies obtained by solid-phase culture of peripheral blood, versus physiological saline (mesenchymal stem cells) |
| --- | --- | --- | --- | --- | --- | --- | --- | --- | --- | --- | --- | --- | --- |
| 1r10: artificial sequence peptide consisting of the amino acid sequence of SEQ ID NO: 1 (30 amino acids) (IMWLCQYFFQCHKCAVKKKTWKEKKDRRHP) [Peptide 1r10] | showed a tendency to recover body weight | the degree of decrease was slower in the peptide-administered group than in the control group | lower in the peptide-administered group than in the control group | lower in the peptide-administered group than in the control group | longer than that of the control group | 27.2±1.2 | statistically significant decrease in dermis thickness | reduction of scaling in the auricle was observed | statistically significant decrease in the number of CD45-positive cells | statistically significant reduction in auricular thickness | not significantly different between the groups | statistically significant decrease in dermis thickness | – |
| HMGB1 peptide 1-44: peptide consisting of amino acid residues 1-44 of the human HMGB1 protein (MGKGDPKKPRGKMSSYAFFVQTCREEHKKKHPDASVNFSEFSKK; UniProt P09429 1-44, looked up, fragment) | – | – | – | – | – | – | – | – | – | – | – | – | larger in the peripheral blood after administration of HMGB1 peptide 1-44 than in the peripheral blood after administration of physiological saline |

From US20230241159A1, “Peptide Having Mesenchymal Stem Cell Mobilizing Activity” (StemRIM Inc., priority 2020, published 2023)
